Experimental data taken from US7060725B2, “Substituted sulfamate anticonvulsant derivatives” (Janssen Pharmaceutica N.V., priority 2002, dated 2006).

How the values were obtained:
[1] = test system: maximal electroshock seizure (MES-induced seizure spread); assay: Maximal electroshock seizure (MES) test, rat; assay type: in vivo, rats; settings: for Rat Activity (oral) (number of rats active/total number of rats tested): 30 mg/kg
Procedure: Anticonvulsant activity was determined using the standard MES model for generalized tonic-clonic seizures (Swinyard E A, Woodhead J H, White H S, Franklin M R, In: […], Meldrum […], Dreifuss F E eds. Antiepileptic drugs. New York: Raven Press, 1989:85-102). An electric stimulus of 0.2 sec duration, 60 Hz, 50 mA in mice, 150 mA in rats, was delivered via corneal electrodes primed with an electrolyte solution containing an anesthetic agent (0.5% tetracaine hydrochloride in 0.9% saline). Mice or rats were randomly selected into control and test groups. The animals were dosed with vehicle or test compound, at varying concentrations. Mice were subjected to the electrical stimulus at 30 minutes and 4 hours following administration of test compound. […] Abolition of the hind limb tonic extensor component was an indication of the test compound's ability to inhibit MES-induced seizure spread. […] A probit analysis (Finney D J. Probit Analysis. Cambridge, England: Cambridge University Press, 1971) was used to calculate the ED50. Following the rat procedure described above, representative compounds of the instant invention were tested for biological activity in the rat, with results as listed in Table 6 and 7. Rat activity is listed as number of rats active/total number of rats tested @ time after administration of the test compound.

[2] = test system: maximal electroshock seizure (MES-induced seizure spread); assay: Maximal electroshock seizure (MES) test, mouse; assay type: in vivo, mice
Procedure: Anticonvulsant activity was determined using the standard MES model for generalized tonic-clonic seizures (Swinyard E A, Woodhead J H, White H S, Franklin M R, In: Levy R H, Mattson R H, Meldrum B S, Penry J K, Dreifuss F E eds. Antiepileptic drugs. New York: Raven Press, 1989:85–102).
An electric stimulus of 0.2 sec duration, 60 Hz, 50 mA in mice, 150 mA in rats, was delivered via corneal electrodes primed with an electrolyte solution containing an anesthetic agent (0.5% tetracaine hydrochloride in 0.9% saline).
Mice or rats were randomly selected into control and test groups. The animals were dosed with vehicle or test compound, at varying concentrations. […] Rats were subjected to electrical stimulus at time intervals between 15 minutes and 4 hours following administration of test compound. Abolition of the hind limb tonic extensor component was an indication of the test compound's ability to inhibit MES-induced seizure spread.
The ED50 (the calculated dose required to block the hindlimb tonic-extensor component of the maximal electroshock seizure in 50% of the animals tested) was calculated. A probit analysis (Finney D J. Probit Analysis. Cambridge, England: Cambridge University Press, 1971) was used to calculate the ED50.
Following the mouse procedure described above, representative compounds of the instant invention were tested for biological activity in the mouse, with results as listed in Table 5. Mouse activity is listed as number of mice active/total number of mice tested @ time after administration of the test compound.

[3] = test system: simple and complex partial seizure and secondarily generalized seizures; settings: cited from earlier work
[4] = 100 mg/kg, @ 0.5 hrs after administration
[5] = 100 mg/kg, @ 4 hrs after administration
[6] = 300 mg/kg, @ 0.5 hrs after administration
[7] = 300 mg/kg, @ 4 hrs after administration

| Structure (SMILES) | ED50 ([1]; @ 4 hrs) | Rat Activity (oral) (number of rats active/total number of rats tested) ([1]; @ 0.25 hrs) | Rat Activity (oral) (number of rats active/total number of rats tested) ([1]; @ 0.5 hrs) | Rat Activity (oral) (number of rats active/total number of rats tested) ([1]; @ 1 hr) | Rat Activity (oral) (number of rats active/total number of rats tested) ([1]; @ 2 hrs) | Rat Activity (oral) (number of rats active/total number of rats tested) ([1]; @ 4 hrs) | Mouse Activity (number of mice active/total number of mice tested) [2, 4] | Mouse Activity (number of mice active/total number of mice tested) [2, 5] | Mouse Activity (number of mice active/total number of mice tested) [2, 6] | Mouse Activity (number of mice active/total number of mice tested) [2, 7] | Mouse Activity ([2]; dosage 30 mg/kg) | Mouse Activity (number of mice active/total number of mice tested) ([2]; 100 mg/kg, @ 1 hr after administration) | Mouse Activity (number of mice active/total number of mice tested) ([2]; 100 mg/kg, @ 2 hrs after administration) | Mouse Activity (number of mice active/total number of mice tested) ([2]; 100 mg/kg, @ 6 hrs after administration) | Mouse Activity (number of mice active/total number of mice tested) ([2]; 100 mg/kg, @ ¼ hrs after administration) | Mouse Activity ([2]; dosage 300 mg/kg) | Mouse Activity ([2]; dosage 30, 100, 300 mg/kg) | efficacy in clinical trials of human epilepsy [3] | ED50 ([2]; @ 2 hrs) |
| --- | --- | --- | --- | --- | --- | --- | --- | --- | --- | --- | --- | --- | --- | --- | --- | --- | --- | --- | --- |
| CCC(=O)[N-]S(=O)(=O)OCC12OCC3OC(C)(C)OC3C1OC(C)(C)O2.[Na+] (stereo not drawn) [Compound 19] | 11.22 @ 4 hrs m/k | 1/4 @ 0.25 hrs | 0/4 @ 0.5 hrs | 1/4 @ 1 hr | 4/4 @ 2 hrs | 4/4 @ 4 hrs | 0/3 @ 0.5 hrs | 3/3 @ 4 hrs | 1/1 @ 0.5 hrs | 1/1 @ 4 hrs | No activity | – | – | – | – | – | – | – | – |
| CC1(C)OC2[C@@H](CO[C@@]3(COS(=O)(=O)NS(=O)(=O)C(F)(F)F)OC(C)(C)O[C@@H]23)O1 (stereo partly drawn) [Compound 30, N-trifluoromethylsulfonyl-2,3:4,5-bis-O-(1-methylethylidene)-β-D-fructopyranose sulfamate] | 2.38 @ 4 hrs m/k | 3/4 @ 0.25 hrs | 4/4 @ 0.5 hrs | 3/4 @ 1 hr | 4/4 @ 2 hrs | 4/4 @ 4 hrs | 2/3 @ 0.5 hrs | 3/3 @ 4 hrs | 1/1 @ 0.5 hrs | 1/1 @ 4 hrs | No activity | – | – | – | – | – | – | – | – |
| CC1(C)OC2COC3(COS(=O)(=O)NC(c4ccccc4)c4ccccc4)OC(C)(C)OC3C2O1 (stereo not drawn) [Compound 37] | – | – | – | 1/4 @ 1 hr | 2/4 @ 2 hrs | 1/4 @ 4 hrs | 0/3 @ ½ hr, | – | – | – | No Activity | 0/3 @ ½ hr, | 1/3 @ ¼ hrs, | 1/3 @ ¼ hrs, | 1/3 @ ¼ hrs, | No activity | – | – | – |
| CC(C)Oc1ccccc1N1CCN(S(=O)(=O)OCC23OCC4OC(C)(C)OC4C2OC(C)(C)O3)CC1 (stereo not drawn) [Compound 39] | – | – | – | – | – | 1/4 @ 4 hrs | – | – | – | – | – | – | – | – | – | – | No activity | – | – |
| CC1(C)O[C@@H]2[C@@H](CO[C@@]3(COS(N)(=O)=O)OC(C)(C)O[C@@H]23)O1 [TPM, 2,3:4,5-bis-O-(1-methylethylidene)-β-D-fructopyranose sulfamate, reference compound] | – | – | – | – | – | – | – | – | – | – | – | – | – | – | – | – | – | effective as adjunctive therapy or as monotherapy | ED50 = 33 m/k |
